Measurements reported in publication PMC5597618, “Identification and characterization of the novel reversible and selective cathepsin X inhibitors” (Scientific Reports, 2017).

What was measured:
cathepsin X = cathepsin X (Homo sapiens, UniProt Q9UBR2); assay: Labeling of cathepsin X with activity-based probe DCG-04 in PC-3 cell lysate; format: biochemical; set-up: endogenous in cells; host or cells: PC-3; details: 10 µM inhibitor
Method: (§1) Evaluation of cellular uptake and retention of compound 22: sample preparation and LC- […]
(§2) PC-3 cells were treated for 1 hour with compound 22 (50 µM). Cells were washed twice with cold PBS, trypsinized, washed once more and centrifuged. A pellet of cells was resuspended in 200 µL of PBS (or in 200 µL of PBS containing 5µM inhibitor for standard addition) and transferred to 1.5 mL Eppendorf vials prefilled with 0.1 mm and 0.5 mm glass beads (NextAdvance, USA). All cell samples were then homogenized with a BulletBlender (NextAdvance, USA) for 5 min at speed setting »6«. […]
(§3) (2.30;50), (2.50;50), (2.6;5). […] ESI Jetstream parameters were set as follows: drying gas temperature 275 °C, drying gas flow 5 L/min, nebulizer 45 psi, sheath gas temperature 320 °C, sheath gas flow 11 L/min, capillary entrance voltage 4000 V and nozzle voltage 1000 V. Quadrupoles Q1 and Q3 were set at the widest resolution (2.5 amu) and multiple reaction monitoring (MRM) mass transitions used for the quantification of recorded traces are presented in Supplementary Table S4. […]
(§4) PC-3 cell lysate was diluted in cathepsin X assay buffer (1 mg/ml protein concentration). […] After blocking with 5% skimmed milk powder in TBS with 0.05% Tween 20, membrane was incubated with streptavidin-HRP (1:5000; Jackson ImmunoResearch) for 1 hour and proteins were detected with […]

PC-3 cells = assay: Cellular uptake and retention by LC-MS/MS; format: in vitro ADME, human; details: 50 µM, after 1 hour
Method: as §1, §2, §3, §4

Cathepsin L = target: T1, Cathepsin L (Homo sapiens, UniProt P07711); assay: Ki against cathepsin L (Z-FR-AMC); format: biochemical; details: SigmaPlot at 3 different substrate concentrations; pH 5.5
T1 construct: made in house; host or cells: E. coli
T1 sequence (P07711 114-333): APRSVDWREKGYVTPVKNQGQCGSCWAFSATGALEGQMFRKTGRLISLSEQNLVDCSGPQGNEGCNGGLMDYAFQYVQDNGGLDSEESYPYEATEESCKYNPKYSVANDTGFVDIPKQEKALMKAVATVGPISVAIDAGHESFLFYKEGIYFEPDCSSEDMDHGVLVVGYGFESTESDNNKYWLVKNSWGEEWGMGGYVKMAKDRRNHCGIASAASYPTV
Method: Recombinant or native human cathepsins were used: recombinant cathepsin X and cathepsin S were expressed in Pichia pastoris, recombinant cathepsins B and L in E. coli, [43], native cathepsin H was isolated from human liver. Assay buffers for determining activities of cathepsins X and L consisted of 100 mM sodium acetate buffer, pH 5.5, for cathepsins H, S and B (endopeptidase activity) of 100 mM phosphate buffer pH 6.8, 6.5 and 6.0, respectively and for cathepsin B (exopeptidase activity) of 60 mM acetate buffer pH 5.0. Each assay buffer contained 0.01% Triton X-100 to prevent false positive inhibition due to aggregation of compounds[45], 5 mM cysteine, 1.5 mM EDTA and 0.1% PEG 8000. Enzymes were activated at 37 °C for 5 min before the assays.
Ki was determined by measuring the initial rate of hydrolysis at three different substrate concentrations (Supplementary Table S2) in the presence of seven different compound concentrations (0, 20, 40, 60, 80, 100 and 200 μM). 90 μL of the activated cathepsin was added to a black 96-well plate with 5 μL of the substrate and 5 μL of the compound. Formation of the fluorescent degradation product was monitored continuously at 460 nm ± 10 nm with excitation at 380 nm ± 20 nm (for AMC substrates) and, as noted above for Abz substrates, at 37 °C. All measurements were performed twice and in duplicate. The resulting data were analyzed by non-linear regression using the software SigmaPlot®, Enzyme Kinetics Module™ 1.3 and were fitted to the equation v = v max [S]/([S] (1 + [I]/αK i ) + K m (1 + [I]/K i )) (first group of compounds). For Ki determination against cathepsin X for the compounds from the second group, progress curves in the absence and presence of each putative inhibitor were fitted to the reaction mechanism presented in Fig. 3b. In this case the resulting data as well as reactivation curves were fitted to the equation system presented in Fig. 3c using ENZO application. For calculation of kinetic parameters from reaction progress curves the fluorescence coefficient for conversion of arbitrary fluorescence units to concentration was first determined. The fluorescence coefficient was calculated as the slope from the plot of initial substrate concentration vs. height of the plateau of the progress curve after complete hydrolysis of increasing concentrations of substrate, using linear regression.
Supplementary Table S2. Substrates used for the various cathepsins and their concentrations […]
Enzyme Substrate Concentration (µM) Reference/Company cathepsin X Abz-FEK(Dnp)-OH 3.25, 6.5, 13 Puzer et al.3 cathepsin B - endopept. Z-RR-AMC 60, 180, 360 Bachem cathepsin B - exopept. Abz-GIVRAK(Dnp)-OH 1, 3, 6 Bachem cathepsin S Z-VVR-AMC 0.5, 1, 1.5 Biomol cathepsin L Z-FR-AMC 0.5, 1, 4 Bachem cathepsin H Z-R-AMC 20, 80, 160 Biomol […]

Sequence of cathepsin X (Q9UBR2 62-303): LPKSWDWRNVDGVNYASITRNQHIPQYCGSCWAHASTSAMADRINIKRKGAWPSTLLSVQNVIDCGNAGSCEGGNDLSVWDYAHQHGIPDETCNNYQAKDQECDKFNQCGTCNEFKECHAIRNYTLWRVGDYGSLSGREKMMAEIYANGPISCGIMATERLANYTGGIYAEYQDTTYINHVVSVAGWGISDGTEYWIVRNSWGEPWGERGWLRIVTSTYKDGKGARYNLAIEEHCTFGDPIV

CC(C)n1cnnc1SCC(=O)c1ccc2c(c1)OCCO2 [Compound 22, 1-(2,3-Dihydrobenzo[b][1,4]dioxin-6-yl)-2-((4-isopropyl-4H-1,2,4-triazol-3-yl)thio)ethan-1-one]
delay of cathepsin X labeling by DCG-04 (cathepsin X): approximately 20 minutes
% of 22 in the cell media (PC-3 cells): 84%
Ki Cathepsin L (Cathepsin L): n.i.
